# How the values were obtained:
# clinical [1] = details: human, in vivo, iv, Vdss
# [2] = human, in vivo, iv
# clinical [3] = details: human, in vivo, iv, CL
# clinical [4] = details: human, in vivo, iv
# clinical [5] = details: human, in vivo, iv, t1/2
# clinical [6] = details: human, in vivo, iv; remark: listed apart in the source
Structure (SMILES),Vd (clinical [1]),t1/2 [2],clearance (clinical [3]),MRT (clinical [4]),half-life (clinical [5]),fraction unbound (clinical [6])
CCN(CC)CCCC(C)Nc1ccnc2cc(Cl)ccc12 (stereo not drawn) [CHLOROQUINE],140 L/kg,570 h,4.1 mL/min/kg,740 h,–,–
COc1cccc2c1C(=O)c1c(O)c3c(c(O)c1C2=O)C[C@@](O)(C(=O)CO)C[C@@H]3O[C@H]1C[C@H](N)[C@@H](O)[C@H](C)O1 [EPIRUBICIN],45 L/kg,36 h,20 mL/min/kg,38 h,–,–
COc1cc(NC(C)CCCN)c2ncccc2c1 (stereo not drawn) [PRIMAQUINE],4 L/kg,7.1 h,5.8 mL/min/kg,11 h,–,–
CC1CNc2c(cccc2S(=O)(=O)N[C@@H](CCCNC(=N)N)C(=O)N2CC[C@@H](C)C[C@@H]2C(=O)O)C1 (stereo partly drawn) [ARGATROBAN],0.17 L/kg,0.4 h,5 mL/min/kg,0.57 h,–,–
N=C(N)c1ccc(OCCCCCOc2ccc(C(=N)N)cc2)cc1 [PENTAMIDINE],53 L/kg,25 h,74 mL/min/kg,12 h,–,–
NCCC(O)(P(=O)(O)O)P(=O)(O)O [PAMIDRONIC ACID],1.8 L/kg,32 h,2.5 mL/min/kg,12 h,–,–
COc1cc([C@@H]2c3cc4c(cc3[C@@H](O[C@@H]3O[C@@H]5CO[C@@H](c6cccs6)O[C@H]5[C@H](O)[C@H]3O)[C@H]3COC(=O)[C@H]23)OCO4)cc(OC)c1O [TENIPOSIDE],0.41 L/kg,–,0.19 mL/min/kg,37 h,16 h,0.0044
COc1cc([C@@H]2c3cc4c(cc3C(OC3OC5COC(C)OC5C(O)C3N)C3COC(=O)[C@@H]32)OCO4)cc(OC)c1O (stereo partly drawn) [NK-611],0.3 L/kg,–,0.4 mL/min/kg,17 h,14 h,0.013
CC1(C)C(/C=C/C=C/C=C/C=C2/N(CCCCS(=O)(=O)[O-])c3ccc4ccccc4c3C2(C)C)=[N+](CCCCS(=O)(=O)[O-])c2ccc3ccccc3c21.[Na+] [INDOCYANINE GREEN],0.035 L/kg,–,6.8 mL/min/kg,0.086 h,0.065 h,0.05
Cc1onc(-c2ccccc2)c1C(=O)N[C@@H]1C(=O)N2[C@@H]1SC(C)(C)[C@@H]2C(=O)O [OXACILLIN],0.19 L/kg,–,6.3 mL/min/kg,0.5 h,0.7 h,0.07
CNCCCC12CCC(c3ccccc31)c1ccccc12 [MAPROTILINE],45 L/kg,–,14 mL/min/kg,54 h,51 h,0.11
CN1C[C@H](C(=O)N[C@]2(C)O[C@@]3(O)[C@@H]4CCCN4C(=O)[C@H](Cc4ccccc4)N3C2=O)C=C2c3cccc4[nH]cc(c34)C[C@H]21 [ERGOTAMINE],3.6 L/kg,–,15 mL/min/kg,4 h,2.1 h,0.02
CC(=O)[C@H]1CC[C@H]2[C@@H]3CC[C@@H]4C[C@H](O)CC[C@]4(C)[C@H]3CC[C@]12C [ELTANOLONE],2 L/kg,–,22 mL/min/kg,1.5 h,4.7 h,0.01
Cn1nnnc1SCC1=C(C(=O)O)N2C(=O)[C@@H](NC(=O)[C@H](O)c3ccccc3)[C@H]2SC1 [CEFAMANDOLE],0.16 L/kg,–,3.6 mL/min/kg,0.75 h,0.75 h,0.25
COc1cc(CC2c3c(cc(OC)c(OC)c3OC)CC[N+]2(C)CCCOC(=O)CCC(=O)OCCC[N+]2(C)CCc3cc(OC)c(OC)c(OC)c3C2Cc2cc(OC)c(OC)c(OC)c2)cc(OC)c1OC (stereo not drawn) [DOXACURIUM],0.22 L/kg,–,2.7 mL/min/kg,1.4 h,1.7 h,0.53
CC(=O)[C@]1(O)Cc2c(O)c3c(c(O)c2[C@@H](O[C@H]2C[C@H](N)[C@H](O)[C@H](C)O2)C1)C(=O)c1ccccc1C3=O [IDARUBICIN],38 L/kg,–,24 mL/min/kg,26 h,16 h,0.076

Structure (SMILES),Vd (clinical [1]),t1/2 [2],clearance (clinical [3]),MRT (clinical [4]),half-life (clinical [5]),fraction unbound (clinical [6])
C#C[C@]1(O)CC[C@H]2[C@@H]3CCC4=CC(=O)CC[C@@H]4[C@H]3CC[C@@]21CC [LEVONORGESTREL],1.5 L/kg,–,1.8 mL/min/kg,14 h,9.4 h,0.025
Nc1nc(F)nc2c1ncn2[C@@H]1O[C@H](CO)[C@@H](O)[C@@H]1O [FLUDARABINE],2.2 L/kg,–,3.2 mL/min/kg,12 h,11 h,0.76
CC1(C)S[C@@H]2[C@H](NC(=O)[C@H](C(=O)O)c3ccsc3)C(=O)N2[C@H]1C(=O)O [TICARCILLIN],0.16 L/kg,–,1.8 mL/min/kg,1.5 h,1 h,0.55
CCCC(C)C1(CC)C(=O)NC(=O)NC1=O (stereo not drawn) [PENTOBARBITAL],0.91 L/kg,–,0.47 mL/min/kg,32 h,22 h,0.39
COc1cc2c(c(OC)c1OC)-c1ccc(OC)c(=O)cc1[C@@H](NC(C)=O)CC2 [COLCHICINE],6.1 L/kg,58 h,2.1 mL/min/kg,49 h,–,–
CN(C)/N=N/c1[nH]cnc1C(N)=O [DACARBAZINE],1.2 L/kg,–,2.6 mL/min/kg,7.8 h,6.2 h,1
CN[C@H]1C(=O)N[C@@H]2Cc3ccc(cc3)Oc3cc4cc(c3O[C@@H]3O[C@H](C(=O)O)[C@@H](O)[C@H](O)[C@H]3NC(=O)CCCCCCCCC(C)C)Oc3ccc(cc3Cl)[C@@H](O)[C@@H]3NC(=O)[C@H](NC(=O)[C@@H]4NC(=O)[C@@H](NC2=O)c2cc(cc(O)c2Cl)Oc2cc1ccc2O)c1ccc(O)c(c1)-c1c(O[C@H]2O[C@H](CO)[C@@H](O)[C@H](O)[C@@H]2O)cc(O)cc1[C@@H](C(=O)NCCCN(C)C)NC3=O [DALBAVANCIN],0.14 L/kg,–,0.01 mL/min/kg,230 h,170 h,0.02
CCCC1C(=O)N2C(N(C)C)=Nc3ccc(C)cc3N2C1=O (stereo not drawn) [APAZONE],0.12 L/kg,–,0.14 mL/min/kg,14 h,17 h,0.004
CCC(=O)O[C@](Cc1ccccc1)(c1ccccc1)[C@H](C)CN(C)C [PROPOXYPHENE],12 L/kg,–,15 mL/min/kg,13.3 h,18 h,0.24
CCCn1c(=O)[nH]c(=O)c2[nH]cnc21 [ENPROFYLLINE],0.63 L/kg,–,4 mL/min/kg,2.6 h,1.8 h,0.55
O=c1c(O)c(-c2ccc(O)c(O)c2)oc2cc(O)cc(O)c12 [QUERCETIN],0.12 L/kg,–,11 mL/min/kg,0.2 h,0.6 h,0.009
CC(=O)O[C@@]12CO[C@@H]1C[C@H](O)[C@@]1(C)C(=O)[C@H](O)C3=C(C)[C@@H](OC(=O)[C@H](O)[C@@H](NC(=O)OC(C)(C)C)c4ccccc4)C[C@@](O)([C@@H](OC(=O)c4ccccc4)[C@H]21)C3(C)C.O.O.O [DOCETAXEL],2.1 L/kg,–,14 mL/min/kg,2.5 h,11 h,0.04
OCCN1CCN(CCCN2c3ccccc3Sc3ccc(Cl)cc32)CC1 [PERPHENAZINE],18 L/kg,–,27 mL/min/kg,11 h,9.4 h,0.07
NS(=O)(=O)c1cc(C(=O)O)cc(N2CCCC2)c1Oc1ccccc1 [PIRETANIDE],0.17 L/kg,–,3.1 mL/min/kg,0.91 h,1.3 h,0.058
CN(C)c1cc(NC(=O)CNC(C)(C)C)c(O)c2c1C[C@H]1C[C@H]3[C@H](N(C)C)C(O)=C(C(N)=O)C(=O)[C@@]3(O)C(O)=C1C2=O [TIGECYCLINE],12 L/kg,–,3.8 mL/min/kg,53 h,48 h,0.2

# Reference: ChEMBL document CHEMBL1614632, “Trend analysis of a database of intravenous pharmacokinetic parameters in humans for 670 drug compounds” (Drug Metab Dispos, 2008)
